Experimental data published in paper PMC9097471, “Development of Selective Phosphatidylinositol 5-Phosphate 4-Kinase γ Inhibitors with a Non-ATP-competitive, Allosteric Binding Mode” (Journal of Medicinal Chemistry, 2022).

How the values were obtained:
PI5P4Kγ-WT [1] = target: T1, PI5P4Kγ-WT (Homo sapiens, UniProt Q8TBX8); assay: InCell Pulse cellular target engagement (thermal stabilisation) in HEK293 cells; type: cell-based
T1 sequence (Q8TBX8 1-421): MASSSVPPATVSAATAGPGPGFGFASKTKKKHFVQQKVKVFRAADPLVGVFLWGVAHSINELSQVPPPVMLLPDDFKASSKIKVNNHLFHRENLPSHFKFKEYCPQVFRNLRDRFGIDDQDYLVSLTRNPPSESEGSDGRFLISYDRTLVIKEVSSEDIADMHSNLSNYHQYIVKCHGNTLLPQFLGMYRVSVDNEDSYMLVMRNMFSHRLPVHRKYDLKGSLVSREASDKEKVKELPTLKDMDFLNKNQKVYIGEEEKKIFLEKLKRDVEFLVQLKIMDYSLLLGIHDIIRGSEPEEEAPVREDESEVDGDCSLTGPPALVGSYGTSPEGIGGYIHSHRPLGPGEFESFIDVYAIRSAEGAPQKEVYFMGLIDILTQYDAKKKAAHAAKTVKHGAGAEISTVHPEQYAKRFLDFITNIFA
Description: The binding of compounds to PI5P4Kγ in intact cells was assessed using an InCell Pulse thermal stabilisation assay (DiscoverX). […] The plate was then incubated for 60 min in the dark prior to luminescence reading using a Pherastar FSX plate reader (BMG Labtech).
Statistical analysis was performed using nonparametric testing in Prism 8 (GraphPad). Activity pIC50 values and in vivo binding pEC50 values were estimated using a 4-parameter fit (Dotmatics).

[2] = Liver microsomal stability; type: in vitro ADME; conditions: liver microsomes; Human liver microsomal hepatic stability; read-out: HLM t1/2
[3] = Chromatographic LogD (HPLC method); type: physicochemical; conditions: pH 7.4, read-out: mchrom log D7.4
Description: 5-100% gradient of MeCN in 50mM NH4OAc in H 2O adjusted to pH 7.4. […]

PI5P4Kβ = target: T2, PI5P4Kβ (Homo sapiens, UniProt P78356); assay: KINOMEscan KD (Eurofins Discovery, DiscoverX); type: binding
T2 sequence (P78356 1-416): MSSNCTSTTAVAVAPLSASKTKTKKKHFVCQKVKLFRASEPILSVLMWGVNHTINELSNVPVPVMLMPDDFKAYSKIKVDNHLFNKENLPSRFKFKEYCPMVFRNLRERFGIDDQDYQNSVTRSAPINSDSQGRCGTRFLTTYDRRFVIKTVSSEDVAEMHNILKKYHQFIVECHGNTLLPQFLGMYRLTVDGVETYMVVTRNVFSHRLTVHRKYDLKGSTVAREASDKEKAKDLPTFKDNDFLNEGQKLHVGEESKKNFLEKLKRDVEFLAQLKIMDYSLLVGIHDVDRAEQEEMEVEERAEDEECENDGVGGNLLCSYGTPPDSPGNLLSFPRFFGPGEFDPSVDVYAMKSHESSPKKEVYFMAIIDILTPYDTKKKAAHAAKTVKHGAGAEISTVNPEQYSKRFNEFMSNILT
Description: (§1) a Data were generated at Eurofins Discovery using DiscoverX KINOMEscanTM technology. Streptavidin-coated magnetic beads were treated with biotinylated small molecule ligands for 30 minutes at room temperature to generate affinity resins for kinase assays. The liganded beads were blocked with excess biotin and washed with blocking buffer (SeaBlock (Pierce), 1% BSA, 0.05% Tween 20, 1 mM DTT) to remove unbound ligand and to reduce non-specific binding. Binding reactions were assembled by combining kinases, liganded affinity beads, and test compounds in 1x binding buffer (20% SeaBlock, 0.17x PBS, 0.05% Tween 20, 6 mM DTT). Test compounds were prepared as 111X stocks in 100% DMSO. Kds were determined using an 11-point 3-fold compound dilution series with three DMSO control points. All compounds for Kd measurements are distributed by acoustic transfer (non-contact dispensing) in 100% DMSO. The compounds were then diluted directly into the assays such that the final concentration of DMSO was 0.9%. All reactions performed in polypropylene 384-well plate. Each was a final volume of 0.02 ml. The assay plates were incubated at room temperature with shaking for […]
(§2) room temperature with shaking for 30 minutes. The kinase concentration in the eluates was measured by qPCR. […]

PI5P4Kγ-WT [4] = target: T1, PI5P4Kγ-WT; assay: KINOMEscan KD (Eurofins Discovery, DiscoverX); type: binding
Description: as §1, §2

PI5P4Kα = target: T3, PI5P4Kα (Homo sapiens, UniProt P48426); assay: Adapta TR-FRET assay (Thermo Fisher); type: biochemical; design: purchased Thermo Fisher
T3 sequence (P48426 1-406): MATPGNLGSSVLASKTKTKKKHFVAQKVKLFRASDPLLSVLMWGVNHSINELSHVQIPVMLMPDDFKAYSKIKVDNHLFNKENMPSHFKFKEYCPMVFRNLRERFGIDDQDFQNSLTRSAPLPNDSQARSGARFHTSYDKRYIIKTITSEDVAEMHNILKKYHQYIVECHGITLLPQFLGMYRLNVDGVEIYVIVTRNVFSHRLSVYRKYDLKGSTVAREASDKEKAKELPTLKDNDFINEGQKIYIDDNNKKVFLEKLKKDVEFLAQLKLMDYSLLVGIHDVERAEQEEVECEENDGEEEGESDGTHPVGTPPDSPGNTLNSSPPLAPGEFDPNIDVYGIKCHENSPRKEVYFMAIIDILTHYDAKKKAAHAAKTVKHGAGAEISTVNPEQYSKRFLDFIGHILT
Description: Table S7. PI5P4Kα adapta assay results for compounds 1 and 40.a
Compound PI5P4Kα adapta IC50 (nM) […]
a The experiments were run by Thermo Fisher. This assay is a TR-FRET based assay using an Eu-anti-ADP antibody, the conditions are: the 2X PIP4Kα/PI(5)P mixture is prepared in 50 mM HEPES pH 7.5, 0.1% CHAPS, 1 mM EGTA, 4 mM MgCl2. The final 10 μL Kinase Reaction consists of 1.5 - 6 ng PIP4Kα and 50 μM PI(5)P in 32.5 mM HEPES pH 7.5, 0.05% CHAPS, 0.5 mM EGTA, 2 mM MgCl2. After the 1 hour Kinase Reaction incubation, 5 μL of Detection Mix is added. The Detection mix consists of EDTA (30mM), Eu-anti-ADP antibody (6 nM) and ADP tracer in TR-FRET buffer. The detection mix contains the EC60 concentration of tracer for 5-

PI5P4Kα-WT = target: T4, PI5P4Kα-WT (Homo sapiens, UniProt P48426); assay: ADP-Glo inhibition assay; conditions: ADP-Glo
T4 sequence (P48426 1-406): T3 sequence (P48426 1-406)
Description: (§3) To enable direct comparisons, Promega’s ADP-Glo reporter assay was developed using a mutant form of the kinase. […] To mitigate concerns about being misled by the use of the PI5P4Kγ+ construct and the possible introduction of PI5P4Kα activity into the molecules, our screening cascade included the measurement of ADP-Glo activity at PI5P4Kα-WT (and PI5P4Kβ-WT to fully understand emerging selectivity profiles).

PI5P4Kβ-WT = target: T5, PI5P4Kβ-WT (Homo sapiens, UniProt P78356); assay: ADP-Glo inhibition assay; conditions: ADP-Glo
T5 sequence (P78356 1-416): T2 sequence (P78356 1-416)
Description: as §3

In the case of `CC(C)c1ccccc1-c1nc(NCc2ccccn2)c2c(ccn2C)n1` [Compound 40], the “cellular target engagement with PI5P4Kγ-WT” value (PI5P4Kγ-WT [1]; InCell Pulse) is reported as “submicromolar activity”, the “Target engagement PI5P4Kγ WT pIC50” value (PI5P4Kγ-WT [1]; InCell Pulse in intact cells) is reported as 6.1 and the half-life at 1 µM [2] is reported as 47 min. The chromatographic logD [3] was 4.5, the Kd (PI5P4Kβ) was over 30 µM and the Kd (PI5P4Kγ-WT [4]) was 0.068 µM. For the same compound, the IC50 (PI5P4Kα) was over 30 µM, the “PI5P4Kα pIC50” value (PI5P4Kα-WT) was under 4.3 and the “PI5P4Kβ pIC50” value (PI5P4Kβ-WT) was under 4.6.

`FC(F)(F)c1ccccc1-c1nc(NCc2cccs2)c2ccccc2n1` [Compound 1, NIH-12848, reference compound] gave an IC50 (PI5P4Kγ-WT [1]; InCell Pulse, new data) of 2.5 µM, a half-life at 1 µM [2] of 21 min and a chromatographic logD [3] of 6.3. For the same compound, the Kd (PI5P4Kβ) was over 30 µM, the Kd (PI5P4Kγ-WT [4]) was 4 µM and the IC50 (PI5P4Kα) was over 30 µM. For the same compound, the “PI5P4Kα pIC50” value (PI5P4Kα-WT) was under 4.3, the IC50 (PI5P4Kα-WT; read-out: PI5P4Kα IC50, new data) was over 50 µM and the “PI5P4Kβ pIC50” value (PI5P4Kβ-WT) was under 4.6. The IC50 (PI5P4Kβ-WT; read-out: PI5P4Kβ IC50, new data) was over 25 µM.
